Legend:
Phytophthora infestans = assay: whole plant or invertebrate; assay type: in vivo; conditions: in Solanum lycopersicum, foliar, 96 h, read-out: control of fungal infection, Phytophthora infestans
Plasmopara viticola = assay: Leaf disk assay, Plasmopara viticola (downy mildew of grapevine), preventive; assay type: in vivo; conditions: foliar, 168 h, grapevine leaf disks, assessed seven days after inoculation, read-out: control of fungal infection, Plasmopara viticola
Septoria nodorum = assay: Leaf disk assay, Septoria nodorum (wheat glume blotch), preventive; assay type: in vivo; conditions: Parastagonospora nodorum, foliar, 96 h, wheat leaf segments, assessed four days after inoculation, read-out: control of fungal infection, Septoria nodorum
Septoria tritici = assay: Growth inhibition in nutrient broth, Septoria tritici (leaf blotch), photometric; assay type: cell-based; conditions: Zymoseptoria tritici, PDB broth, 24 C, 72 hrs, read-out: control of fungal infection, Septoria tritici
Fusarium culmorum = assay: Growth inhibition in nutrient broth, Fusarium culmorum (root rot), photometric; assay type: cell-based; conditions: 48 h, read-out: control of fungal infection, Fusarium culmorum
Description: The compounds were tested in a leaf disk assay, with methods described below. The test compounds were dissolved in DMSO and diluted into water to 200 ppm. In the case of the test on Pythium ultimum, they were dissolved in DMSO and diluted into water to 20 ppm.
Fusarium culmorum (root rot): Conidia of the fungus from cryogenic storage were directly mixed into nutrient broth (PDB potato dextrose broth). After placing a (DMSO) solution of the test compounds into a microtiter plate (96-well format) the nutrient broth containing the fungal spores was added. The test plates were incubated at 24 C and the inhibition of growth was determined photometrically after 48 hrs.

[1] = tested on: Erysiphe graminis f.sp. tritici; assay: Leaf disk assay, Erysiphe graminis f.sp. tritici (wheat powdery mildew), preventive; assay type: in vivo; conditions: Blumeria graminis, foliar, 96 h, wheat leaf segments, assessed four days after inoculation, read-out: control of fungal infection, Erysiphe graminis f.sp. tritici
Description: The compounds were tested in a leaf disk assay, with methods described below. The test compounds were dissolved in DMSO and diluted into water to 200 ppm. In the case of the test on Pythium ultimum, they were dissolved in DMSO and diluted into water to 20 […] graminis f.sp. tritici (wheat powdery mildew): Wheat leaf segments were placed on agar in a 24-well plate and sprayed with a solution of the test compound. After allowing to dry completely, for between 12 and 24 hours, the leaf disks were inoculated with a spore suspension of the fungus. After appropriate incubation the activity of a compound was assessed four days after inoculation as preventive fungicidal activity.

[2] = tested on: Puccinia recondita f.sp. tritici; assay: Leaf disk assay, Puccinia recondita f.sp. tritici (wheat brown rust), preventive; assay type: in vivo; conditions: foliar, 216 h, wheat leaf segments, assessed nine days after inoculation, read-out: control of fungal infection, Puccinia recondita f.sp. tritici
Pythium ultimum = assay: Growth inhibition in potato dextrose broth, Pythium ultimum (damping off), photometric; assay type: cell-based; conditions: Globisporangium ultimum, 24° C., 48 hours, read-out: control of fungal infection, Pythium ultimum
Description: The compounds were tested in a leaf disk assay, with methods described below. The test compounds were dissolved in DMSO and diluted into water to 200 ppm. In the case of the test on Pythium ultimum, they were dissolved in DMSO and diluted into water to 20 ppm. Pythium ultimum (Damping off): Mycelial fragments of the fungus, prepared from a fresh liquid culture, were mixed into potato dextrose broth. A solution of the test compound in dimethyl sulphoxide was diluted with water to 20 ppm then placed into a 96-well microtiter plate and the nutrient broth containing the fungal spores was added. The test plate was incubated at 24° C. and the inhibition of growth was determined photometrically after 48 hours.

C#CC(C)(C)NC(=O)C(Oc1ccc2ncc(C#CC)cc2c1)SC (stereo not drawn) [Example 57]
≥ 60%: pest or weed control at 200 ppm (Phytophthora infestans) | pest or weed control at 200 ppm (Plasmopara viticola) | pest or weed control at 200 ppm (Septoria nodorum) | inhibition of growth at 60 ppm (Septoria tritici) | inhibition of growth at 60 ppm (Fusarium culmorum)

C#Cc1cnc2ccc(OC(SC)C(=O)NC(C)(C)C=O)cc2c1 (stereo not drawn) [Example 61]
≥ 60%: pest or weed control at 200 ppm (Phytophthora infestans) | pest or weed control at 200 ppm (Plasmopara viticola) | pest or weed control at 200 ppm [1] | pest or weed control at 200 ppm [2] | inhibition of growth at 60 ppm (Septoria tritici) | inhibition of growth at 60 ppm (Fusarium culmorum) | inhibition of growth at 20 ppm (Pythium ultimum)

C#Cc1cnc2ccc(OC(SC)C(=O)NC(C)(C#CC)CC)cc2c1 (stereo not drawn) [Example 204]
≥ 60%: pest or weed control at 200 ppm (Phytophthora infestans) | pest or weed control at 200 ppm (Plasmopara viticola) | pest or weed control at 200 ppm [1] | pest or weed control at 200 ppm [2] | pest or weed control at 200 ppm (Septoria nodorum) | inhibition of growth at 60 ppm (Septoria tritici) | inhibition of growth at 60 ppm (Fusarium culmorum) | inhibition of growth at 20 ppm (Pythium ultimum)

C#Cc1cnc2ccc(OC(SC)C(=O)NCC)cc2c1 (stereo not drawn) [Example 97]
≥ 60%: pest or weed control at 200 ppm (Phytophthora infestans) | pest or weed control at 200 ppm (Plasmopara viticola) | pest or weed control at 200 ppm [1] | pest or weed control at 200 ppm [2] | pest or weed control at 200 ppm (Septoria nodorum) | inhibition of growth at 60 ppm (Septoria tritici) | inhibition of growth at 60 ppm (Fusarium culmorum) | inhibition of growth at 20 ppm (Pythium ultimum)

C#Cc1cnc2cc(F)c(OC(SC)C(=O)NC(C)(C)C#CC)cc2c1 (stereo not drawn) [Example 107]
≥ 60%: pest or weed control at 200 ppm (Phytophthora infestans) | pest or weed control at 200 ppm (Plasmopara viticola) | pest or weed control at 200 ppm [1] | pest or weed control at 200 ppm [2] | pest or weed control at 200 ppm (Septoria nodorum) | inhibition of growth at 60 ppm (Septoria tritici) | inhibition of growth at 60 ppm (Fusarium culmorum)

C#Cc1cnc2ccc(OC(SC)C(=O)NC(C)(C#C)CC)cc2c1 (stereo not drawn) [Example 205]
≥ 60%: pest or weed control at 200 ppm (Phytophthora infestans) | pest or weed control at 200 ppm (Plasmopara viticola) | pest or weed control at 200 ppm [1] | inhibition of growth at 60 ppm (Fusarium culmorum) | inhibition of growth at 20 ppm (Pythium ultimum)

C#Cc1cnc2ccc(OC(SC)C(=O)NC3CC3)cc2c1 (stereo not drawn) [Example 212]
≥ 60%: pest or weed control at 200 ppm (Phytophthora infestans) | pest or weed control at 200 ppm (Plasmopara viticola) | pest or weed control at 200 ppm [1] | pest or weed control at 200 ppm [2] | pest or weed control at 200 ppm (Septoria nodorum) | inhibition of growth at 60 ppm (Septoria tritici) | inhibition of growth at 60 ppm (Fusarium culmorum) | inhibition of growth at 20 ppm (Pythium ultimum)

CSC(Oc1ccc2ncc(C#CBr)cc2c1)C(=O)NC(C)(C)C (stereo not drawn) [Example 69]
≥ 60%: pest or weed control at 200 ppm (Phytophthora infestans) | pest or weed control at 200 ppm (Plasmopara viticola) | inhibition of growth at 60 ppm (Septoria tritici) | inhibition of growth at 60 ppm (Fusarium culmorum) | inhibition of growth at 20 ppm (Pythium ultimum)

C#Cc1cnc2ccc(OC(SC)C(=O)NC(C)(C)CC#N)cc2c1 (stereo not drawn) [Example 197]
≥ 60%: pest or weed control at 200 ppm (Phytophthora infestans) | pest or weed control at 200 ppm (Plasmopara viticola) | inhibition of growth at 60 ppm (Fusarium culmorum) | inhibition of growth at 20 ppm (Pythium ultimum)

C#CCC(C)(C)NC(=O)C(Oc1cc2cc(C#C)cnc2cc1F)SC (stereo not drawn) [Example 187]
≥ 60%: pest or weed control at 200 ppm (Phytophthora infestans) | pest or weed control at 200 ppm (Plasmopara viticola) | pest or weed control at 200 ppm [1] | pest or weed control at 200 ppm [2] | pest or weed control at 200 ppm (Septoria nodorum) | inhibition of growth at 60 ppm (Septoria tritici) | inhibition of growth at 60 ppm (Fusarium culmorum) | inhibition of growth at 20 ppm (Pythium ultimum)

C#Cc1cnc2ccc(OC(OC)C(=O)NC(C)(C)C#CCOC)cc2c1 (stereo not drawn) [Example 125]
≥ 60%: pest or weed control at 200 ppm (Phytophthora infestans) | pest or weed control at 200 ppm (Plasmopara viticola) | pest or weed control at 200 ppm [1] | inhibition of growth at 60 ppm (Septoria tritici) | inhibition of growth at 60 ppm (Fusarium culmorum) | inhibition of growth at 20 ppm (Pythium ultimum)

C#CCNC(=O)C(Oc1ccc2ncc(C#C)cc2c1)SC (stereo not drawn) [Example 208]
≥ 60%: pest or weed control at 200 ppm (Phytophthora infestans) | pest or weed control at 200 ppm (Plasmopara viticola) | pest or weed control at 200 ppm [1] | pest or weed control at 200 ppm [2] | pest or weed control at 200 ppm (Septoria nodorum) | inhibition of growth at 60 ppm (Septoria tritici) | inhibition of growth at 60 ppm (Fusarium culmorum) | inhibition of growth at 20 ppm (Pythium ultimum)

C#Cc1cnc2ccc(OC(SC)C(=O)NC3CCC3)cc2c1 (stereo not drawn) [Example 213]
≥ 60%: pest or weed control at 200 ppm (Phytophthora infestans) | pest or weed control at 200 ppm (Plasmopara viticola) | pest or weed control at 200 ppm [1] | pest or weed control at 200 ppm [2] | pest or weed control at 200 ppm (Septoria nodorum) | inhibition of growth at 60 ppm (Septoria tritici) | inhibition of growth at 60 ppm (Fusarium culmorum) | inhibition of growth at 20 ppm (Pythium ultimum)

C#Cc1cnc2c(C)cc(OC(CC)C(=O)NC(C)(C)CO)cc2c1 (stereo not drawn) [Example 111]
≥ 60%: pest or weed control at 200 ppm (Phytophthora infestans) | pest or weed control at 200 ppm (Plasmopara viticola) | pest or weed control at 200 ppm [1] | pest or weed control at 200 ppm (Septoria nodorum) | inhibition of growth at 60 ppm (Septoria tritici) | inhibition of growth at 60 ppm (Fusarium culmorum) | inhibition of growth at 20 ppm (Pythium ultimum)

C#Cc1cnc2ccc(OC(SC)C(=O)NC(C#C)(CC)CC)cc2c1 (stereo not drawn) [Example 207]
≥ 60%: pest or weed control at 200 ppm (Phytophthora infestans) | pest or weed control at 200 ppm (Plasmopara viticola) | pest or weed control at 200 ppm [1] | pest or weed control at 200 ppm [2] | inhibition of growth at 60 ppm (Fusarium culmorum) | inhibition of growth at 20 ppm (Pythium ultimum)

C#Cc1cnc2c(F)cc(OC(SC)C(=O)NC(C)C)cc2c1 (stereo not drawn) [Example 222]
≥ 60%: pest or weed control at 200 ppm (Phytophthora infestans) | pest or weed control at 200 ppm (Plasmopara viticola) | pest or weed control at 200 ppm [1] | pest or weed control at 200 ppm [2] | pest or weed control at 200 ppm (Septoria nodorum) | inhibition of growth at 60 ppm (Septoria tritici) | inhibition of growth at 60 ppm (Fusarium culmorum) | inhibition of growth at 20 ppm (Pythium ultimum)

C#Cc1cnc2cc(F)c(OC(SC)C(=O)NC(C)(C=O)COC)cc2c1 (stereo not drawn) [Example 210]
≥ 60%: pest or weed control at 200 ppm (Plasmopara viticola) | pest or weed control at 200 ppm [1] | pest or weed control at 200 ppm [2] | pest or weed control at 200 ppm (Septoria nodorum) | inhibition of growth at 60 ppm (Septoria tritici) | inhibition of growth at 60 ppm (Fusarium culmorum) | inhibition of growth at 20 ppm (Pythium ultimum)

C#Cc1cnc2ccc(OC(CC)C(=O)NC(C)(C)CO)cc2c1 (stereo not drawn) [Example 110]
≥ 60%: pest or weed control at 200 ppm (Phytophthora infestans) | pest or weed control at 200 ppm [1] | pest or weed control at 200 ppm (Septoria nodorum) | inhibition of growth at 60 ppm (Septoria tritici) | inhibition of growth at 60 ppm (Fusarium culmorum) | inhibition of growth at 20 ppm (Pythium ultimum)

C#Cc1cnc2ccc(OC(OC)C(=O)NC(C)(C)C#C)cc2c1 (stereo not drawn) [Example 124]
≥ 60%: pest or weed control at 200 ppm (Phytophthora infestans) | pest or weed control at 200 ppm (Plasmopara viticola) | pest or weed control at 200 ppm [1] | pest or weed control at 200 ppm (Septoria nodorum) | inhibition of growth at 60 ppm (Septoria tritici) | inhibition of growth at 60 ppm (Fusarium culmorum) | inhibition of growth at 20 ppm (Pythium ultimum)

CC#Cc1cnc2ccc(OC(SC)C(=O)NC(C)(C)C)cc2c1 (stereo not drawn) [Example 54]
≥ 60%: pest or weed control at 200 ppm (Phytophthora infestans) | pest or weed control at 200 ppm (Plasmopara viticola) | pest or weed control at 200 ppm [1] | pest or weed control at 200 ppm (Septoria nodorum) | inhibition of growth at 60 ppm (Septoria tritici) | inhibition of growth at 60 ppm (Fusarium culmorum) | inhibition of growth at 20 ppm (Pythium ultimum)

COCC#Cc1cnc2ccc(OC(SC)C(=O)NC(C)(C)C)cc2c1 (stereo not drawn) [Example 42]
≥ 60%: pest or weed control at 200 ppm (Phytophthora infestans) | pest or weed control at 200 ppm (Plasmopara viticola) | pest or weed control at 200 ppm [1] | pest or weed control at 200 ppm [2] | inhibition of growth at 60 ppm (Septoria tritici) | inhibition of growth at 60 ppm (Fusarium culmorum) | inhibition of growth at 20 ppm (Pythium ultimum)

C#Cc1cnc2c(F)cc(OC(SC)C(=O)NC(C)(C)C)cc2c1 (stereo not drawn) [Example 201]
≥ 60%: pest or weed control at 200 ppm (Phytophthora infestans) | pest or weed control at 200 ppm (Plasmopara viticola) | pest or weed control at 200 ppm [1] | pest or weed control at 200 ppm (Septoria nodorum) | inhibition of growth at 60 ppm (Septoria tritici) | inhibition of growth at 60 ppm (Fusarium culmorum) | inhibition of growth at 20 ppm (Pythium ultimum)

C#Cc1cnc2ccc(OC(OC)C(=O)NC(C)(C)C)cc2c1 (stereo not drawn) [Example 87]
≥ 60%: pest or weed control at 200 ppm (Phytophthora infestans) | pest or weed control at 200 ppm (Plasmopara viticola) | pest or weed control at 200 ppm [1] | pest or weed control at 200 ppm [2] | pest or weed control at 200 ppm (Septoria nodorum) | inhibition of growth at 60 ppm (Septoria tritici) | inhibition of growth at 60 ppm (Fusarium culmorum)

C#Cc1cnc2ccc(OC(SC)C(=O)NCC#N)cc2c1 (stereo not drawn) [Example 196]
≥ 60%: pest or weed control at 200 ppm (Phytophthora infestans) | pest or weed control at 200 ppm (Plasmopara viticola) | pest or weed control at 200 ppm [1] | pest or weed control at 200 ppm (Septoria nodorum) | inhibition of growth at 60 ppm (Septoria tritici) | inhibition of growth at 60 ppm (Fusarium culmorum) | inhibition of growth at 20 ppm (Pythium ultimum)

CSC(Oc1ccc2ncc(C#CCCl)cc2c1)C(=O)NC(C)(C)C (stereo not drawn) [Example 143]
≥ 60%: pest or weed control at 200 ppm [2] | pest or weed control at 200 ppm (Septoria nodorum) | inhibition of growth at 60 ppm (Septoria tritici) | inhibition of growth at 60 ppm (Fusarium culmorum) | inhibition of growth at 20 ppm (Pythium ultimum)

Reference: patent US8415272B2, “Quinoline derivatives and their use as fungicides” (Syngenta Crop Protection LLC, priority 2008, dated 2013)
